# Earlier results, collected in patent publication US8486889B1, “Composition and method for the treatment and prevention of endothelial dysfunction” (Advanced Medical Instruments, priority 2001, dated 2013).
# Experiments:
# [1] = those on ASA
# [2] = 325 mg ASA every other day
# [3] = in a fast dissolving tablet
# [4] = aspirin use
# [5] = 500 mg/day, after one month
# [6] = in vivo
# [7] = not given; remark: listed apart in the source
# [8] = glucosamine combined with an NSAID, activity preserved
# [9] = Vioxx compared to naproxen
# [10] = rabbit
# [11] = rats, intragastric indomethacin, pre-treatment with zinc sulphate
# [12] = taken orally, versus placebo
# [13] = simultaneous administration of zinc
# [14] = 600 mg per day, double-blind trial
molecule,measurement,setting,value
"CC(=O)Oc1ccccc1C(=O)O [ASA, Acetylsalicylic acid]",fewer strokes,[1],42%
same,"reduction in the incidence of subsequent myocardial infarction, stroke, and death from cardiovascular causes",[2]; about 5 years,25%
same,reduction in the incidence of first myocardial infarction,"[2]; about 5 years, 22,000 US male physicians",44%
same,time to reach blood levels and inhibit platelet activity,chewing the tablet,5 min
same,time to reach peak blood levels,in vivo,30 min
same,ASA absorbed by the buccal mucosa,[3],16-35%
same,reduction of the risk of breast cancer,[4],20%
same,reduction of the risk of colorectal cancer,[4],50%
same,reduction of the risk of lung cancer,[4],30%
same,reduction of the risk of prostate cancer,[4],50%
O=C1O[C@H]([C@@H](O)CO)C(O)=C1O [Ascorbic acid],lowering of systolic blood pressure,[5],10%
N[C@H]1C(O)O[C@H](CO)[C@@H](O)[C@@H]1O (stereo partly shown) [Glucosamine],absorbed in the GI tract,[6],90%
same,solubility,[7],very soluble in water
same,factor of decrease of the amount of NSAID required to produce an antiexudative result,[8],2-2.7 times
COc1ccc2[nH]cc(CCNC(C)=O)c2c1 [Melatonin],solubility,[7],high lipid and aqueous solubility
"CS(=O)(=O)c1ccc(C2=C(c3ccccc3)C(=O)OC2)cc1 [Vioxx, rofecoxib]",risk of myocardial infarction,[9],four fold risk
"CNC[C@H](O)c1ccc(O)c(O)c1 [epinephrine, Epinephrine]",time to peak of effectiveness,[10]; 2.5 mg sublingual tablet,20.8 min
same,time to peak effectiveness,[10]; injection,15.8 min
O=S(=O)([O-])[O-].[Zn+2] [zinc sulphate],mucosal ulcerations,[11],completely prevented
same,rate of gastric ulcer healing,[12],three times the rate of a placebo
[Zn] [zinc],salicylate-induced hearing loss,[13],completely prevented
Vitamin E,endothelial-dependent dilation of the brachial artery,[14],showed improvement
